Consider 23 compounds from patent publication US20240246946A1, “MODULATORS OF TREX1” (Constellation Pharmaceuticals, Inc., priority 2021, published 2024).

Assay [1] has as its target T1, hTREX1 (Homo sapiens, UniProt Q9NSU2).
T1 construct: host or cells: HCT116 dual cells
T1 sequence (Q9NSU2 1-314): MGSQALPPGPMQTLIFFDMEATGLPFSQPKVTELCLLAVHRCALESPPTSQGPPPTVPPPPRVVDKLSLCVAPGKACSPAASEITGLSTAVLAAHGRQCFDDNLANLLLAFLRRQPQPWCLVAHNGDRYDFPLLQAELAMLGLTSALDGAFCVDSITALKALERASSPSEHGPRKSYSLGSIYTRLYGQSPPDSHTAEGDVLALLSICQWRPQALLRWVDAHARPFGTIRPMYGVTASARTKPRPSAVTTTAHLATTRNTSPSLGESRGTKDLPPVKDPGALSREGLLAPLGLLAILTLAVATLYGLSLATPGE
The assay can be described thus: hTREX1 HCT116 Cell Assay (HCT116 dual cells, Lucia luciferase reporter of Type I interferon induction). The assay is classed as cell-based. Particulars: TREX1i 4 h before pBR322/BstNI transfection, read after 48 h. The source says:
HCT116 dual cells (Invivogen, San Diego, CA, USA) are derived from the human HCT116 colorectal carcinoma cell line. Cells have been selected for the stable integration of SEAP and Luciferase reporter genes, which expression is under the control of 5 tandem response elements for NF-KB/AP1 and STAT1/STAT2, respectively. The cell line was used to monitor Type I interferon induction and subsequent signaling by measuring the activity of the Lucia luciferase secreted in the culture medium.
HCT116 cells were plated in 96-well plate(s) at 40,000 cells/well in 100 uL DMEM supplemented with 10% FBS and 25 mM Hepes (pH 7.2-7.5). After overnight settling, cells were treated with TREX1i for 4 h (maximum DMSO fraction was 0.1%) before 1 ug/mL pBR322/BstNI restriction digest (New England Biolabs, Ipswich, MA, USA) was transfected with Lipofectamine LTX (ThermoFisher, Grand Island, NY, USA), according to product manual recommendations. Briefly, Lipofectamine LTX (0.35 uL/well) was diluted in OptiMEM (5 uL/well). pBR322/BstNI (100 ng/well) was diluted in OptiMEM (5 uL/well) before Plus reagent (0.1 uL/100 ng DNA) was added. After 5 min incubation at room temperature, the DNA mixture was mixed dropwise with the diluted Lipofectamine LTX. After an additional 10 min incubation, the transfection mix (10 uL/well) was added to the cells. Cells were maintained at 37 C for 48 h before monitoring the Lucia Luciferase activity from the cell culture medium.
Background: In a reporter assay the amount or activity of a reporter protein is the signal.

The target in assay [2] is T2, full length mouse TREX1 (Mus musculus, UniProt Q91XB0).
T2 construct: N-terminally His-Tev tagged full length mouse TREX1; made in house; host or cells: E. coli
T2 sequence (Q91XB0 1-314): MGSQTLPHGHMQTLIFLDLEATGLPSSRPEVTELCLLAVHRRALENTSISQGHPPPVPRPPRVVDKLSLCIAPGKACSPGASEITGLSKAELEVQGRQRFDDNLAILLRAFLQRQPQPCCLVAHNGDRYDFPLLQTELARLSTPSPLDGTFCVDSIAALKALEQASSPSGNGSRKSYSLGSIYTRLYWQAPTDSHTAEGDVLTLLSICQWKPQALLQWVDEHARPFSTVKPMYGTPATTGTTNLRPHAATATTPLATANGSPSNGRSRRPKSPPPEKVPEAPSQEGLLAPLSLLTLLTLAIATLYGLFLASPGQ
Description: mTREX1 Biochemical Assay (fluorescence, dsDNA substrate degradation). The conditions noted are these: biochemical, read-out: mTREX1 IC50. In a few lines:
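Reaction run 18 h at 25° C. with 60 nM TEX615/quencher-labelled dsDNA and 6 pM mouse TREX1 in Tris buffer (pH 7.4, 5 mM MgCl2, 1.0% DMSO), enzyme having sat 4 h with compound across 10 concentrations. EDTA quench; substrate degradation measured as fluorescence increase.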

The target of assay [3] is T3, full length human TREX1 (Homo sapiens, UniProt Q9NSU2).
T3 construct: N-terminally His-Tev tagged full length human TREX1; made in house; host or cells: E. coli
T3 sequence (Q9NSU2 1-314): T1 sequence (Q9NSU2 1-314)
The assay can be described thus: hTREX1 Biochemical Assay (fluorescence, dsDNA substrate degradation). Particulars: biochemical, read-out: hTREX1 IC50. Summed up: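 Cleavage of 60 nM TEX615/quencher-labelled dsDNA in pH 7.4 Tris buffer with 5 mM MgCl2, 1.0% DMSO, run 18 hours at 25° C, EDTA-quenched; fluorescence read-out.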

In assay [4] the target is T4, human TREX2 (residues M44-A279) (Homo sapiens, UniProt Q9BQ50).
T4 construct: human TREX2 (residues M44-A279, expressed in E. coli); made in house; host or cells: E. coli
T4 sequence (Q9BQ50 44-279 isoform Q9BQ50-1): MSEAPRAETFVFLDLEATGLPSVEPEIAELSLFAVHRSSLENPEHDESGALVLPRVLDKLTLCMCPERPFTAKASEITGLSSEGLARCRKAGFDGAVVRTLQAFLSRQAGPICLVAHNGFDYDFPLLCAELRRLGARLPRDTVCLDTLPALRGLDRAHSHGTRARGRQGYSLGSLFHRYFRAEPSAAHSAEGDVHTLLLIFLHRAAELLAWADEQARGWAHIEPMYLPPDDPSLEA
The assay can be described thus: hTREX2 Biochemical Assay (fluorescence, dsDNA substrate degradation). Particulars: biochemical selectivity for hTREX1 vs hTREX2. Summed up: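 N-His-Tev E. coli enzyme (50 pM) pre-incubated with compound 4 h at 25 °C, then 60 nM TEX615/quencher dsDNA added; 18 h at 25 °C, pH 7.4 Tris buffer with 5 mM MgCl2, 1.0% DMSO. EDTA-quenched; fluorescence 570 ex/615 em from liberated fluorophore, 10-point dose-response.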

Usually IC50 stands for the point on the concentration scale where inhibition reaches its midpoint.

SMILES strings stand for the structures.

For `Cc1cnc(C)c(C(c2cc(F)ccc2C#N)C(C)c2nc(C(=O)Nc3cnoc3)c(O)c(=O)n2C)n1` (single isomer, unassigned) [Example 119 D1E1], the IC50 in assay [1] is less than 10 nM.
As for `CC(c1nc(C(=O)Nc2cnoc2)c(O)c(=O)n1C)C(c1cnn(CC(C)(C)O)c1)c1ccccc1C#N` (single isomer, unassigned) [Example 36 D1E1], the IC50 in assay [1] was greater than 100 nM; in assay [2], 1 to 10 nM; in assay [3], less than 1 nM.
In the case of `CC(c1nc(C(=O)Nc2cnoc2)c(O)c(=O)n1C)C(c1cnn(C)c1)c1ccncc1C#N` (single isomer, unassigned) [Example 8 D1E2], the IC50 in assay [1] is 10 to 100 nM; in assay [2] it was 1 to 10 nM; in assay [3], less than 1 nM.
For `CC(c1nc(C(=O)Nc2cnoc2)c(O)c(=O)n1C)C(c1ncn(C)n1)c1ccccc1C#N` (single isomer, unassigned) [Example 51 D1E2], the IC50 in assay [1] was 10 to 100 nM; in assay [2], greater than 10 nM; in assay [3], 1 to 10 nM.
As to `CC(c1nc(C(=O)Nc2cnoc2)c(O)c(=O)n1C)C(c1cnn(CCN2CCNCC2)c1)c1ccccc1C#N` (single isomer, unassigned) [Example 31 D1E1], the IC50 in assay [1] was greater than 100 nM; in assay [2] it was 1 to 10 nM; in assay [3], less than 1 nM.
Consider `COCCn1cc(C(c2cc(F)ccc2C#N)C(C)c2nc(C(=O)Nc3cnoc3)c(O)c(=O)n2C)cn1` (single isomer, unassigned) [Example 18 D1E2], for which the IC50 in assay [1] is greater than 100 nM; in assay [2] it was 1 to 10 nM; in assay [3], less than 1 nM.
`Cc1nn(C)c(C)c1C(c1ccccc1C#N)C(C)c1nc(C(=O)Nc2cnoc2)c(O)c(=O)n1C` (single isomer, unassigned) [Example 78 D2E1]: the IC50 in assay [1] was 10 to 100 nM; in assay [2] it was greater than 10 nM; in assay [3], 1 to 10 nM.
Taken in the same sequence, the figures for `CC(c1nc(C(=O)Nc2cnoc2)c(O)c(=O)n1C)C(c1cnn(CCCN(C)C)c1)c1ccccc1C#N` (single isomer, unassigned) [Example 34 D1E1] were greater than 100 nM, 1 to 10 nM and less than 1 nM.
In the case of `CC(c1nc(C(=O)Nc2cnoc2)c(O)c(=O)n1C)C(c1cnn(C)c1)c1c(C#N)cccc1C#N` (single isomer, unassigned) [Example 19 D1E2], the IC50 in assay [1] was less than 10 nM; in assay [2] it was 1 to 10 nM; in assay [3] it was less than 1 nM.
As to `Cc1nn(C)cc1C(c1ccccc1C#N)C(C)c1nc(C(=O)Nc2cnoc2)c(O)c(=O)n1C` (single isomer, unassigned) [Example 3 D2E2], the values for the IC50 in assay [1], in assay [2] and in assay [3] were greater than 100 nM, greater than 10 nM and 1 to 10 nM, respectively.
On to `CC(c1nc(C(=O)Nc2cnoc2)c(O)c(=O)n1C)C(c1cnn(CCN2CCN(C)CC2)c1)c1ccccc1C#N` (single isomer, unassigned) [Example 32 D1E1], for which the IC50 in assay [1] was greater than 100 nM; in assay [2], 1 to 10 nM; in assay [3], less than 1 nM.
For `CC(c1nc(C(=O)Nc2cnoc2)c(O)c(=O)n1C)C(c1ccccc1C#N)c1c(C#N)cnn1C` (single isomer, unassigned) [Example 52 D2E1], the IC50 was greater than 100 nM in assay [1], greater than 10 nM in assay [2] and greater than 10 nM in assay [3].
Regarding `CCn1ncc(C(c2ccc(F)cc2C#N)C(C)c2nc(C(=O)Nc3cnoc3)c(O)c(=O)n2C)c1C` (single isomer, unassigned) [Example 65 D1E1], the values for the IC50 in assay [1], in assay [2] and in assay [3] were less than 10 nM, less than 1 nM and less than 1 nM, respectively.
Consider `CC(c1nc(C(=O)Nc2cnoc2)c(O)c(=O)n1C)C(c1ccccc1C#N)c1c(C#N)cnn1C` (single isomer, unassigned) [Example 52 D1E1], for which the IC50 in assay [1] was 10 to 100 nM; in assay [2], greater than 10 nM; in assay [3] it was 1 to 10 nM.
The corresponding values for `Cc1cc(C(c2ccccc2C#N)C(C)c2nc(C(=O)Nc3cnoc3)c(O)c(=O)n2C)ccn1` (single isomer, unassigned) [Example 6 D2E2] are greater than 100 nM, greater than 10 nM and 1 to 10 nM.
Take `COC(C)(C)Cn1cc(C(c2ccccc2C#N)C(C)c2nc(C(=O)Nc3cnoc3)c(O)c(=O)n2C)cn1` (single isomer, unassigned) [Example 37 D1E1]: the IC50 in assay [1] is 10 to 100 nM; in assay [2] it was 1 to 10 nM; in assay [3] it was less than 1 nM.
Regarding `CC(c1nc(C(=O)Nc2cnoc2)c(O)c(=O)n1C)C(c1ccccc1C#N)c1nnnn1C` (single isomer, unassigned) [Example 131 D1E1], the IC50 in assay [2] and in assay [3] was greater than 10 nM in each case. Besides, the “hTREX1 vs hTREX2 selectivity” value in assay [4] is recorded as “A (A = <25 fold selective for hTREX1)”.
As for `Cc1ncc(C(c2ccccc2Cl)C(C)c2nc(C(=O)Nc3cnoc3)c(O)c(=O)n2C)cn1` (single isomer, unassigned) [Example 44 D2E2], the IC50 in assay [2] and in assay [3] was greater than 10 nM throughout. Moreover, the “hTREX1 vs hTREX2 selectivity” value in assay [4] is given as “A (A = <25 fold selective for hTREX1)”.
Turning to `CC(c1nc(C(=O)Nc2cnoc2)c(O)c(=O)n1C)C(c1cnn(CC(F)F)c1)c1cc(F)ccc1C#N` (single isomer, unassigned) [Example 102 D1E1], the IC50 in assay [2] and in assay [3] was greater than 10 nM each time. Also, the “hTREX1 vs hTREX2 selectivity” value in assay [4] was “A (A = <25 fold selective for hTREX1)”.
Consider `CC(c1nc(C(=O)Nc2cnoc2)c(O)c(=O)n1C)C(c1ccccc1C#N)c1ccnn1C` (single isomer, unassigned) [Example 1 D1E2], for which the IC50 in assay [2] and in assay [3] was greater than 10 nM throughout. Moreover, the “hTREX1 vs hTREX2 selectivity” value in assay [4] is on record as “A (A = <25 fold selective for hTREX1)”.
In the case of `Cc1cnc(C)c(C(c2ccccc2C#N)C(C)c2nc(C(=O)Nc3cnoc3)c(O)c(=O)n2C)n1` (single isomer, unassigned) [Example 82 D1E2], the IC50 in assay [2] and in assay [3] was greater than 10 nM in each case. For the same compound, in assay [4], the “hTREX1 vs hTREX2 selectivity” value is “B (B = 25 to 50-fold selective for hTREX1)”.
As for `CC(c1nc(C(=O)Nc2cnoc2)c(O)c(=O)n1C)C(c1cnn(CCOC(F)(F)F)c1)c1cc(F)ccc1C#N` (single isomer, unassigned) [Example 101 D1E1], the IC50 in assay [2] and in assay [3] was greater than 10 nM each time. In addition, the “hTREX1 vs hTREX2 selectivity” value in assay [4] was “A (A = <25 fold selective for hTREX1)”.
In the case of `COCCn1cc(C(c2cc(F)ccc2C#N)C(C)c2nc(C(=O)Nc3cnoc3)c(O)c(=O)n2C)c(C)n1` (single isomer, unassigned) [Example 103 D2E2], the IC50 in assay [2] and in assay [3] was greater than 10 nM each time. In addition, in assay [4], the “hTREX1 vs hTREX2 selectivity” value was “A (A = <25 fold selective for hTREX1)”.
